According to US5677419A, “Cyclic vasoactive peptide analogs” (Hoffmann-La Roche Inc., priority 1994, dated 1997):
Where a SMILES comes first, the peptide text is derived from it. Bridges are numbered along the chain shown (N, C = ends). [ ]: non-standard residue; d: D form. NMeA = CN[C@@H](C)C(=O)O; Nle = CCCC[C@H](N)C(=O)O

What was measured:
[1] = system: guinea pig tracheal smooth muscle; test: Tracheal relaxant activity of VIP analogs on isolated guinea pig tracheal rings; format: cell-based; conditions: cumulative concentration response, relaxation as % of maximum response to VIP (10^-6 M=100%), three tissues pooled, linear regression
Summary of the method: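 Male guinea pig tracheal rings under 1.5 g resting tension in Krebs at 37° C, 95% O2/5% CO2, isometric tension. Cumulative concentration-response curves; relaxation as % of response to 10^-6 M VIP added at end; three tissues pooled, EC50 by linear regression.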

guinea pigs = test: In vivo bronchodilator activity by tracheal instillation against histamine challenge; set-up: species or system guinea pig; conditions: anesthetized male guinea pigs, inhibition of histamine (i.v.)-induced rise in tracheal pressure
Experimental: The in vivo bronchodilator activity of VIP and VIP analogs in guinea pigs was assessed by the tracheal instillation route of administration. This technique utilized male guinea pigs (Hartley strain, Charles River) weighing 400-600 g. Animals were anesthetized with urethane (2 g/kg) intraperitoneally and a polyethylene cannula was inserted into the jugular vein for intraveneous drug administration.
The animals were tracheotomized and dosing solutions of distilled water or test compound dissolved in distilled water were administered into the trachea, approximately three-quarters the distance to the carina with a pipette. The concentration of the dosing solution was adjusted to deliver a constant volume of […]. The animals were placed supine for one minute to aid drug delivery to the lung. One minute later, spontaneous breathing was arrested with succinylcholine chloride (1.2 mg/kg) administered intraveneously, and the animals were ventilated with a HARVARD Model 680 small animal respirator set at 40 breaths/min and 4.0 cm^3 stroke volume. The animals were challenged with a maximal constrictory dose of histamine ([…], i.v.) and tracheal pressure (cm of water) was recorded from a STATHAM pressure transducer (P 32 AA).
The change in tracheal pressure was averaged for at least 3 control and 3 drug-treated animals and percent inhibition was calculated. The relative potency of compounds administered by the instillation route was determined by administering various doses of test compound and calculating the median effective dose (ED50 value). The ED50 was determined from log dose-response curves generated by at least 3 doses that caused inhibitory effects between 10% and 90%. The correlation coefficients for the regression line of each compound was always greater than 0.95.
For determination of the time course of inhibition for various compounds, the time between administration of compound and challenge with histamine was varied. The time course of activity was calculated as the time when inhibition decreased to 40%.
The results summarized in Table II show the in vivo bronchodilator activity of the VIP analogs in comparison to native VIP.

## CCCC[C@H](NC(=O)[C@H](CCC(N)=O)NC(=O)[C@H](CCCCN)NC(=O)[C@H](CCCNC(=N)N)NC(=O)[C@H](CC(C)C)NC(=O)[C@H](CCCCN)NC(=O)[C@@H](NC(=O)[C@H](Cc1ccc(O)cc1)NC(=O)[C@H](CC(N)=O)NC(=O)[C@H](CC(=O)O)NC(=O)[C@@H](NC(=O)[C@H](Cc1ccccc1)NC(=O)[C@@H](NC(=O)[C@H](C)NC(=O)[C@H](CC(=O)O)NC(=O)[C@H](CO)NC(=O)[C@H](C)N(C)C(C)=O)C(C)C)[C@@H](C)O)[C@@H](C)O)C(=O)N[C@@H](C)C(=O)N[C@@H](C)C(=O)N[C@@H](CCCCN)C(=O)N[C@H]1CCCCNC(=O)C[C@@H](C(=O)N[C@H](C(=O)N[C@@H](CC(C)C)C(=O)N[C@H](C(N)=O)[C@@H](C)O)C(C)C)NC(=O)[C@H](CC(N)=O)NC(=O)[C@H](CC(C)C)NC(=O)[C@H](Cc2ccc(O)cc2)NC1=O [SEQ ID NO:34, Ac-[N-Me-Ala^1,Lys^12,Nle^17,Ala^19,Asp^25,Val^26,Thr^28]-VIP cyclo (Lys^21 →Asp^25)] (Ac-[NMeA]SDAVFTDNYTKLRKQ[Nle]AAKKYLNDVLT-NH2; lactam 21-25)
[1]
  EC50: 710 pM
Guinea pigs
  Bronchodilator activity of VIP analogs in guinea pigs, ED50: 1.0 μg

## CCCC[C@H](NC(=O)[C@H](CCC(N)=O)NC(=O)[C@H](CCCCN)NC(=O)[C@H](CCCNC(=N)N)NC(=O)[C@H](CC(C)C)NC(=O)[C@H](CCCCN)NC(=O)[C@@H](NC(=O)[C@H](Cc1ccc(O)cc1)NC(=O)[C@H](CC(N)=O)NC(=O)[C@H](CC(=O)O)NC(=O)[C@@H](NC(=O)[C@H](Cc1ccccc1)NC(=O)[C@@H](NC(=O)[C@H](C)NC(=O)[C@H](CC(=O)O)NC(=O)[C@H](CO)NC(=O)[C@H](Cc1c[nH]cn1)NC(C)=O)C(C)C)[C@@H](C)O)[C@@H](C)O)C(=O)N[C@@H](C)C(=O)N[C@@H](C)C(=O)N[C@@H](CCCCN)C(=O)N[C@H]1CCCCNC(=O)C[C@@H](C(=O)N[C@@H](CC(C)C)C(=O)N[C@@H](CCCCN)C(=O)N[C@@H](CCCCN)C(N)=O)NC(=O)[C@H](CC(N)=O)NC(=O)[C@H](CC(C)C)NC(=O)[C@H](Cc2ccc(O)cc2)NC1=O [SEQ ID NO:38, Ac-[Lys^12,Nle^17,Ala^19,Asp^25,Leu^26,Lys^27,28]-VIP cyclo (Lys^21 →Asp^25)] (Ac-HSDAVFTDNYTKLRKQ[Nle]AAKKYLNDLKK-NH2; lactam 21-25)
[1]
  EC50: 130 pM
Guinea pigs
  Bronchodilator activity of VIP analogs in guinea pigs, ED50: 0.09 μg

## CCCC[C@H](NC(=O)[C@H](CCC(N)=O)NC(=O)[C@H](CCCCN)NC(=O)[C@H](CCCNC(=N)N)NC(=O)[C@H](CC(C)C)NC(=O)[C@H](CCCCN)NC(=O)[C@@H](NC(=O)[C@H](Cc1ccc(O)cc1)NC(=O)[C@H](CC(N)=O)NC(=O)[C@H](CC(=O)O)NC(=O)[C@@H](NC(=O)[C@H](Cc1ccccc1)NC(=O)[C@@H](NC(=O)[C@H](C)NC(=O)[C@H](CC(=O)O)NC(=O)[C@H](CO)NC(=O)[C@H](C)N(C)C(C)=O)C(C)C)[C@@H](C)O)[C@@H](C)O)C(=O)N[C@@H](C)C(=O)N[C@@H](C)C(=O)N[C@@H](CCCCN)C(=O)N[C@H]1CCCCNC(=O)C[C@@H](C(=O)N[C@@H](CC(C)C)C(=O)N[C@@H](CCCCN)C(=O)N[C@@H](CCCCN)C(N)=O)NC(=O)[C@H](CC(N)=O)NC(=O)[C@H](CC(C)C)NC(=O)[C@H](Cc2ccc(O)cc2)NC1=O [SEQ ID NO:39, Ac-[N-Me-Ala^1,Lys^12,Nle^17,Ala^19,Asp^25,Leu^26,Lys^27,28]-VIP cyclo (Lys^21 →Asp^25)] (Ac-[NMeA]SDAVFTDNYTKLRKQ[Nle]AAKKYLNDLKK-NH2; lactam 21-25)
[1]
  EC50: 950 pM
Guinea pigs
  Bronchodilator activity of VIP analogs in guinea pigs, ED50: 0.06 μg

## CCCC[C@H](NC(=O)[C@H](CCC(N)=O)NC(=O)[C@H](CCCCN)NC(=O)[C@H](CCCNC(=N)N)NC(=O)[C@H](CC(C)C)NC(=O)[C@H](CCCCN)NC(=O)[C@@H](NC(=O)[C@H](Cc1ccc(O)cc1)NC(=O)[C@H](CC(N)=O)NC(=O)[C@H](CCC(=O)O)NC(=O)[C@@H](NC(=O)[C@H](Cc1ccccc1)NC(=O)[C@@H](NC(=O)[C@H](C)NC(=O)[C@H](CC(=O)O)NC(=O)[C@H](CO)NC(=O)[C@H](Cc1c[nH]cn1)NC(C)=O)C(C)C)[C@@H](C)O)[C@@H](C)O)C(=O)N[C@@H](C)C(=O)N[C@@H](C)C(=O)N[C@@H](CCCCN)C(=O)N[C@H]1CCCCNC(=O)C[C@@H](C(=O)N[C@@H](CC(C)C)C(=O)N[C@@H](CCCCN)C(=O)N[C@@H](CCCCN)C(N)=O)NC(=O)[C@H](CC(N)=O)NC(=O)[C@H](CC(C)C)NC(=O)[C@H](Cc2ccc(O)cc2)NC1=O [SEQ ID NO:40, Ac-[Glu^8,Lys^12,Nle^17,Ala^19,Asp^25,Leu^26,Lys^27,28]-VIP cyclo (Lys^21 →Asp^25)] (Ac-HSDAVFTENYTKLRKQ[Nle]AAKKYLNDLKK-NH2; lactam 21-25)
[1]
  EC50: 450 pM
Guinea pigs
  Bronchodilator activity of VIP analogs in guinea pigs, ED50: 0.022 μg

## CCCC[C@H](NC(=O)[C@H](CCC(N)=O)NC(=O)[C@H](CCCCN)NC(=O)[C@H](CCCNC(=N)N)NC(=O)[C@H](CC(C)C)NC(=O)[C@H](CCCCN)NC(=O)[C@@H](NC(=O)[C@H](Cc1ccc(O)cc1)NC(=O)[C@H](CC(N)=O)NC(=O)[C@H](CCC(=O)O)NC(=O)[C@@H](NC(=O)[C@H](Cc1ccccc1)NC(=O)[C@@H](NC(=O)[C@H](C)NC(=O)[C@H](CC(=O)O)NC(=O)[C@H](CO)NC(=O)[C@H](Cc1c[nH]cn1)NC(C)=O)C(C)C)[C@@H](C)O)[C@@H](C)O)C(=O)N[C@@H](C)C(=O)N[C@@H](C)C(=O)N[C@@H](CCCCN)C(=O)N[C@H]1CCCCNC(=O)C[C@@H](C(=O)N[C@@H](CC(C)C)C(=O)N[C@@H](CCCCN)C(=O)N[C@@H](CCCCN)C(=O)N[C@@H](C)C(=O)N[C@@H](C)C(=O)N[C@@H](C)C(N)=O)NC(=O)[C@H](CC(N)=O)NC(=O)[C@H](CC(C)C)NC(=O)[C@H](Cc2ccc(O)cc2)NC1=O [SEQ ID NO:42, Ac-[Glu^8,Lys^12,Nle^17,Ala^19,Asp^25,Leu^26,Lys^27,28,Ala^29-31]-VIP cyclo (Lys^21 →Asp^25)] (Ac-HSDAVFTENYTKLRKQ[Nle]AAKKYLNDLKKAAA-NH2; lactam 21-25)
[1]
  EC50: 610 pM
Guinea pigs
  Bronchodilator activity of VIP analogs in guinea pigs, ED50: 0.072 μg

## CCCC[C@H](NC(=O)[C@H](CCC(N)=O)NC(=O)[C@H](CCCCN)NC(=O)[C@H](CCCNC(=N)N)NC(=O)[C@H](CC(C)C)NC(=O)[C@H](CCCCN)NC(=O)[C@@H](NC(=O)[C@H](Cc1ccc(O)cc1)NC(=O)[C@H](CC(N)=O)NC(=O)[C@H](CCC(=O)O)NC(=O)[C@@H](NC(=O)[C@H](Cc1ccccc1)NC(=O)[C@@H](NC(=O)[C@H](C)NC(=O)[C@H](CC(=O)O)NC(=O)[C@H](C)NC(=O)[C@H](Cc1c[nH]cn1)NC(C)=O)C(C)C)[C@@H](C)O)[C@@H](C)O)C(=O)N[C@@H](C)C(=O)N[C@@H](C)C(=O)N[C@@H](CCCCN)C(=O)N[C@H]1CCCCNC(=O)C[C@@H](C(=O)N[C@@H](CC(C)C)C(=O)N[C@@H](CCCCN)C(=O)N[C@@H](CCCCN)C(=O)N[C@@H](C)C(=O)N[C@@H](C)C(=O)N[C@@H](C)C(N)=O)NC(=O)[C@H](CC(N)=O)NC(=O)[C@H](CC(C)C)NC(=O)[C@H](Cc2ccc(O)cc2)NC1=O [SEQ ID NO:43, Ac-[Ala^2,Glu^8,Lys^12,Nle^17,Ala^19,Asp^25,Leu^26,Lys^27,28,Ala^29-31]-VIP cyclo (Lys^21 →Asp^25)] (Ac-HADAVFTENYTKLRKQ[Nle]AAKKYLNDLKKAAA-NH2; lactam 21-25)
[1]
  EC50: 550 pM
Guinea pigs
  Bronchodilator activity of VIP analogs in guinea pigs, ED50: 0.14 μg
